Experimental data taken from PubChem BioAssay AID330 (DTP/NCI, 2004).
“And” between values parts separate entries of the source, which are not always exact repeats. Equal entries are not always repeated. Inconclusive results and toxic doses are left out.

Test system: P388 leukemia ip, CD2F1 mice, survival T/C
Assay: NCI In Vivo Anticancer Drug Screen. Data for tumor model P388 Leukemia (intraperitoneal) in CD2F1 (CDF1) mice
Conditions: endpoint: median survival time, higher = longer survival
How it was run: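 Mice carrying the transplanted tumor received test compound or vehicle. Survival was recorded in each group, and the value is the treated-group measurement divided by that of the vehicle-treated control group.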

[1] = dose: 50.0 mg/kg/injection, schedule: Q01DX005 (ip), vehicle: saline with Tween-80
[2] = dose: 100.0 mg/kg/injection, schedule: Q01DX005 (ip), vehicle: saline with Tween-80
[3] = dose: 200.0 mg/kg/injection, schedule: Q01DX005 (ip), vehicle: saline with Tween-80
[4] = dose: 60.0 mg/kg/injection, schedule: Q01DX005 (ip), vehicle: saline with Tween-80
[5] = dose: 120.0 mg/kg/injection, schedule: Q01DX005 (ip), vehicle: saline with Tween-80
[6] = dose: 240.0 mg/kg/injection, schedule: Q01DX005 (ip), vehicle: saline with Tween-80
[7] = dose: 50.0 mg/kg/injection, schedule: Q01DX005 (ip), vehicle: saline

With `CC(C)NC(=O)OCc1c(COC(=O)NC(C)C)c(-c2ccc(F)c(F)c2)n2c1CCC2` the T/C (dose: 3.13 mg/kg/injection, schedule: Q01DX009 (ip), vehicle: distilled water + Tween-80) was 151 % of control, the T/C (dose: 6.25 mg/kg/injection, schedule: Q01DX009 (ip), vehicle: distilled water + Tween-80) was 160 % of control and the T/C (dose: 12.5 mg/kg/injection, schedule: Q01DX009 (ip), vehicle: distilled water + Tween-80) was 172 % of control and 178 % of control. The T/C (dose: 25.0 mg/kg/injection, schedule: Q01DX009 (ip), vehicle: distilled water + Tween-80) was 123 % of control and 211 % of control and the T/C (dose: 50.0 mg/kg/injection, schedule: Q01DX009 (ip), vehicle: distilled water + Tween-80) was 109 % of control and 92 % of control.
`CC1(C)OC2(C=CC(C)([N+](=O)[O-])C=C2)OC1=O` (configuration not stated) was tested, and the T/C (dose: 50.0 mg/kg/injection, schedule: Q01DX005 (ip), vehicle: Klucel (hydroxypropylcellulose) (HPC)) was 101 % of control, the T/C (dose: 100.0 mg/kg/injection, schedule: Q01DX005 (ip), vehicle: Klucel (hydroxypropylcellulose) (HPC)) was 94 % of control and the T/C (dose: 200.0 mg/kg/injection, schedule: Q01DX005 (ip), vehicle: Klucel (hydroxypropylcellulose) (HPC)) was 100 % of control.
`O=C(Cc1ccccc1)CC(CC(=O)Cc1ccccc1)c1ccccc1` was tested, and the T/C [1] was 94 % of control, the T/C [2] was 89 % of control and the T/C [3] was 103 % of control.
With `Nc1[nH]c(=S)ncc1-c1ccccc1Cl` the T/C [4] was 98 % of control, the T/C [5] was 95 % of control and the T/C [6] was 93 % of control.
In the case of `Cc1nccc2c(C)c3c(cc12)c1ccccc1n3C`, the T/C (dose: 5.0 mg/kg/injection, schedule: Q01DX005 (ip), vehicle: saline) is reported as 107 % of control, the T/C (dose: 10.0 mg/kg/injection, schedule: Q01DX005 (ip), vehicle: saline) is reported as 107 % of control and the T/C (dose: 20.0 mg/kg/injection, schedule: Q01DX005 (ip), vehicle: saline) is reported as 99 % of control.
In the case of `CC1=CCCC(C)(O)C2CC(CCC3(C)OC3CC1)C(C)C(=O)O2` (configuration not stated), the T/C (dose: 7.5 mg/kg/injection, schedule: Q01DX009 (ip), vehicle: Klucel (hydroxypropylcellulose) (HPC)) is reported as 108 % of control, the T/C (dose: 15.0 mg/kg/injection, schedule: Q01DX009 (ip), vehicle: Klucel (hydroxypropylcellulose) (HPC)) is reported as 103 % of control and the T/C (dose: 30.0 mg/kg/injection, schedule: Q01DX009 (ip), vehicle: Klucel (hydroxypropylcellulose) (HPC)) is reported as 89 % of control. For the same compound, the T/C (dose: 60.0 mg/kg/injection, schedule: Q01DX009 (ip), vehicle: Klucel (hydroxypropylcellulose) (HPC)) was 91 % of control.
With `CCOC(=O)/C=C(/Nc1cccc(OC)c1)c1ccccc1` the T/C (dose: 25.0 mg/kg/injection, schedule: Q01DX009 (ip), vehicle: other) was 97 % of control, the T/C (dose: 50.0 mg/kg/injection, schedule: Q01DX009 (ip), vehicle: other) was 103 % of control and the T/C (dose: 100.0 mg/kg/injection, schedule: Q01DX009 (ip), vehicle: other) was 98 % of control. The T/C (dose: 200.0 mg/kg/injection, schedule: Q01DX009 (ip), vehicle: other) was 91 % of control and the T/C (dose: 400.0 mg/kg/injection, schedule: Q01DX009 (ip), vehicle: other) was 105 % of control.
In the case of `C=C1CN(CCc2ccccc2)C(=S)S1`, the T/C [4] is reported as 101 % of control, the T/C [5] is reported as 102 % of control and the T/C [6] is reported as 102 % of control.
With `[NH-]CC[NH-].[NH-]CC[NH-].[NH-]CC[NH-].[Ni]` the T/C (dose: 6.25 mg/kg/injection, schedule: Q01DX009 (ip), vehicle: saline) was 90 % of control and the T/C (dose: 12.5 mg/kg/injection, schedule: Q01DX009 (ip), vehicle: saline) was 90 % of control.
With `COc1ccc(OC)c(NC(=O)SC(C)C)c1` the T/C (dose: 60.0 mg/kg/injection, schedule: Q01DX005 (ip), vehicle: Klucel (hydroxypropylcellulose) (HPC)) was 93 % of control, the T/C (dose: 120.0 mg/kg/injection, schedule: Q01DX005 (ip), vehicle: Klucel (hydroxypropylcellulose) (HPC)) was 96 % of control and the T/C (dose: 240.0 mg/kg/injection, schedule: Q01DX005 (ip), vehicle: Klucel (hydroxypropylcellulose) (HPC)) was 92 % of control.
In the case of `O=C(CCc1ccccc1)c1c(O)c(Cc2ccccc2O)c2c(c1O)Cc1ccccc1O2`, the T/C (dose: 1.5 mg/kg/injection, schedule: Q01DX009 (ip), vehicle: Klucel (hydroxypropylcellulose) (HPC)) is reported as 100 % of control, the T/C (dose: 3.0 mg/kg/injection, schedule: Q01DX009 (ip), vehicle: Klucel (hydroxypropylcellulose) (HPC)) is reported as 98 % of control and the T/C (dose: 6.0 mg/kg/injection, schedule: Q01DX009 (ip), vehicle: Klucel (hydroxypropylcellulose) (HPC)) is reported as 98 % of control. The T/C (dose: 12.0 mg/kg/injection, schedule: Q01DX009 (ip), vehicle: Klucel (hydroxypropylcellulose) (HPC)) was 98 % of control.
`COc1ccc(NS(=O)(=O)c2ccc(C)cc2)c([N+](=O)[O-])c1` was tested, and the T/C (dose: 50.0 mg/kg/injection, schedule: Q01DX009 (ip), vehicle: Klucel (hydroxypropylcellulose) (HPC)) was 116 % of control, the T/C (dose: 100.0 mg/kg/injection, schedule: Q01DX009 (ip), vehicle: Klucel (hydroxypropylcellulose) (HPC)) was 115 % of control and the T/C (dose: 200.0 mg/kg/injection, schedule: Q01DX009 (ip), vehicle: Klucel (hydroxypropylcellulose) (HPC)) was 115 % of control.
In the case of `O/N=C/c1cccc(O)c1O`, the T/C [1] is reported as 96 % of control and the T/C [2] is reported as 107 % of control.
`Cc1ccc(-[n+]2c3cc(N)c(C)cc3nc3cc(C)c(Nc4ccccc4)cc32)cc1` was tested, and the T/C (dose: 25.0 mg/kg/injection, schedule: Q01DX005 (ip), vehicle: saline + Tween-80 + alcohol) was 109 % of control, the T/C (dose: 25.0 mg/kg/injection, schedule: Q01DX005 (ip), vehicle: saline with Tween-80) was 101 % of control and the T/C (dose: 50.0 mg/kg/injection, schedule: Q01DX005 (ip), vehicle: saline + Tween-80 + alcohol) was 116 % of control. The T/C [1] was 119 % of control and 122 % of control, the T/C [2] was 119 % of control and 122 % of control and the T/C [3] was 119 % of control.
With `COc1ccc2c(c1O)CN1CCc3cc4c(cc3C1C2)OCO4` (configuration not stated) the T/C [1] was 104 % of control, the T/C [2] was 110 % of control and the T/C [3] was 115 % of control.
For `C[Si](C)(C)Cn1ccc(=O)n(C[Si](C)(C)C)c1=O`, the T/C [1] was 107 % of control, the T/C [2] was 101 % of control and the T/C [3] was 107 % of control.
In the case of `CCCCCCCCCCCCS(=O)(=O)CCC(=O)c1ccco1`, the T/C (dose: 100.0 mg/kg/injection, schedule: Q04DX003 (ip), vehicle: saline) is reported as 99 % of control, the T/C (dose: 200.0 mg/kg/injection, schedule: Q04DX003 (ip), vehicle: saline) is reported as 99 % of control and the T/C (dose: 400.0 mg/kg/injection, schedule: Q04DX003 (ip), vehicle: saline) is reported as 97 % of control.
`CC[CH2][Sn]([Cl])([Cl])[CH2]CC.Oc1ccccc1C=NCCN=Cc1ccccc1O` was tested, and the T/C (dose: 0.6 mg/kg/injection, schedule: Q01DX009 (ip), vehicle: gum acacia) was 111 % of control and the T/C (dose: 5.0 mg/kg/injection, schedule: Q01DX009 (ip), vehicle: gum acacia) was 159 % of control.
For `CC[N+]1=C(C2=NCCc3ccccc32)c2ccccc2CC1`, the T/C (dose: 12.5 mg/kg/injection, schedule: Q01DX005 (ip), vehicle: saline) was 104 % of control, the T/C (dose: 25.0 mg/kg/injection, schedule: Q01DX005 (ip), vehicle: saline) was 98 % of control and the T/C [1] was 92 % of control. The T/C [7] was 100 % of control.
With `COC(=O)N1CCCc2cc3c(cc(OC)c(OC)c3c3[nH]c4ccccc4c23)CC1` the T/C (dose: 50.0 mg/kg/injection, schedule: Q01DX005 (ip), vehicle: Klucel + Tween-80) was 100 % of control, the T/C (dose: 100.0 mg/kg/injection, schedule: Q01DX005 (ip), vehicle: Klucel + Tween-80) was 95 % of control and the T/C (dose: 200.0 mg/kg/injection, schedule: Q01DX005 (ip), vehicle: Klucel + Tween-80) was 91 % of control.
For `CNC(=O)N(N=O)c1[nH]c(=O)ncc1Cl`, the T/C [4] was 116 % of control and the T/C [5] was 116 % of control.
`COc1ccc(OC)c(C(=O)c2cccc(C(=O)c3cc(OC)ccc3OC)n2)c1` was tested, and the T/C [4] was 99 % of control, the T/C [5] was 109 % of control and the T/C [6] was 119 % of control.
`CCSc1n[nH]c(C2CCC(=O)N2Cc2ccccc2)n1` (configuration not stated) was tested, and the T/C [1] was 103 % of control, the T/C [2] was 104 % of control and the T/C [3] was 102 % of control.
With `O=C1OC2c3ccccc3C(=O)C2(c2ccccc2)O1` (configuration not stated) the T/C (dose: 100.0 mg/kg/injection, schedule: Q01DX001 (ip), vehicle: saline with Tween-80) was 97 % of control, the T/C [2] was 97 % of control and the T/C (dose: 200.0 mg/kg/injection, schedule: Q01DX001 (ip), vehicle: saline with Tween-80) was 97 % of control. For the same compound, the T/C [3] was 97 % of control, the T/C (dose: 400.0 mg/kg/injection, schedule: Q01DX001 (ip), vehicle: saline with Tween-80) was 96 % of control and the T/C (dose: 400.0 mg/kg/injection, schedule: Q01DX005 (ip), vehicle: saline with Tween-80) was 96 % of control.
For `c1ccc(C(Sc2ncnc3nc[nH]c23)c2ccccc2)cc1`, the T/C (dose: 50.0 mg/kg/injection, schedule: Q01DX009 (ip), vehicle: saline) was 102 % of control, the T/C (dose: 100.0 mg/kg/injection, schedule: Q01DX009 (ip), vehicle: saline) was 102 % of control and the T/C (dose: 200.0 mg/kg/injection, schedule: Q01DX009 (ip), vehicle: saline) was 111 % of control.
For `CN(C)C(CCC(=O)O)C(=O)O` (configuration not stated), the T/C [7] was 102 % of control, the T/C (dose: 100.0 mg/kg/injection, schedule: Q01DX005 (ip), vehicle: saline) was 97 % of control and the T/C (dose: 200.0 mg/kg/injection, schedule: Q01DX005 (ip), vehicle: saline) was 98 % of control.
For `COCCN(CCOC)C(C(=O)Cc1ccccc1)c1ccccc1` (configuration not stated), the T/C [1] was 99 % of control, the T/C [2] was 101 % of control and the T/C [3] was 103 % of control.
In the case of `COC(=O)[C@@H]1C(=O)[C@H](C(=O)OC)C2CCCC3CCCC1N32` (some centres not stated), the T/C [1] is reported as 98 % of control and the T/C [2] is reported as 98 % of control.
